Assay results as given in ChEMBL document CHEMBL1154064, “Synthesis and DNA cleavage activity of 2-hydrazinyl-1,4,5,6-tetrahydropyrimidine containing hydroxy group” (2009).
Activity calls are given as the source filed them. The rule behind the calls is not given here.

How the values were obtained:
Nucleic Acid [1] = experiment: Binding affinity to Escherichia coli pUC19 DNA assessed as form 1 DNA level at 0.349 mM after 24.08 hrs by agarose gel electrophoresis; format: nucleic-acid assay
Nucleic Acid [2] = experiment: Binding affinity to Escherichia coli pUC19 DNA assessed as form 2 DNA level at 0.130 mM after 14 hrs by agarose gel electrophoresis; format: nucleic-acid assay
Nucleic Acid [3] = experiment: Binding affinity to Escherichia coli pUC19 DNA assessed as form 1 DNA level at 0.463 mM after 25.35 hrs by agarose gel electrophoresis; format: nucleic-acid assay
Nucleic Acid [4] = experiment: Binding affinity to Escherichia coli pUC19 DNA assessed as form 1 DNA level at 0.175 mM after 29.33 hrs by agarose gel electrophoresis; format: nucleic-acid assay
Nucleic Acid [5] = experiment: Binding affinity to Escherichia coli pUC19 DNA assessed as form 1 DNA level at 0.320 mM by agarose gel electrophoresis; format: nucleic-acid assay
HeLa = experiment: Growth inhibition of human HeLa cells at 10 uM after 72 hrs by MTT assay; format: functional; set-up: scale not given: the % may be the effect or the level left
Nucleic Acid [6] = experiment: Binding affinity to Escherichia coli pUC19 DNA assessed as form 1 DNA level at 0.175 mM by agarose gel electrophoresis; format: nucleic-acid assay
Nucleic Acid [7] = experiment: Binding affinity to Escherichia coli pUC19 DNA assessed as form 1 DNA level at 0.175 mM after 25.35 hrs by agarose gel electrophoresis; format: nucleic-acid assay
Nucleic Acid [8] = experiment: Binding affinity to Escherichia coli pUC19 DNA assessed as form 1 DNA level at 0.320 mM after 23.12 hrs by agarose gel electrophoresis; format: nucleic-acid assay
Nucleic Acid [9] = experiment: Binding affinity to Escherichia coli pUC19 DNA assessed as form 2 DNA level at 0.262 mM by agarose gel electrophoresis; format: nucleic-acid assay
Nucleic Acid [10] = experiment: Binding affinity to Escherichia coli pUC19 DNA assessed as form 1 DNA level at 0.320 mM after 4.95 hrs by agarose gel electrophoresis; format: nucleic-acid assay
Nucleic Acid [11] = experiment: Binding affinity to Escherichia coli pUC19 DNA assessed as form 2 DNA level at 0.463 mM after 27.33 hrs by agarose gel electrophoresis; format: nucleic-acid assay
Nucleic Acid [12] = experiment: Binding affinity to Escherichia coli pUC19 DNA assessed as form 2 DNA level at 0.463 mM after 9.07 hrs by agarose gel electrophoresis; format: nucleic-acid assay
Nucleic Acid [13] = experiment: Binding affinity to Escherichia coli pUC19 DNA assessed as form 1 DNA level at 0.130 mM after 23.52 hrs by agarose gel electrophoresis; format: nucleic-acid assay
Nucleic Acid [14] = experiment: Binding affinity to Escherichia coli pUC19 DNA assessed as form 1 DNA level at 0.463 mM after 23.12 hrs by agarose gel electrophoresis; format: nucleic-acid assay
Nucleic Acid [15] = experiment: Binding affinity to Escherichia coli pUC19 DNA assessed as form 2 DNA level at 0.698 mM after 3.72 hrs by agarose gel electrophoresis; format: nucleic-acid assay
Nucleic Acid [16] = experiment: Binding affinity to Escherichia coli pUC19 DNA assessed as form 2 DNA level at 0.463 mM after 25.35 hrs by agarose gel electrophoresis; format: nucleic-acid assay
Nucleic Acid [17] = experiment: Binding affinity to Escherichia coli pUC19 DNA assessed as form 1 DNA level at 0.175 mM after 13.07 hrs by agarose gel electrophoresis; format: nucleic-acid assay
Nucleic Acid [18] = experiment: Binding affinity to Escherichia coli pUC19 DNA assessed as form 1 DNA level at 0.130 mM after 14 hrs by agarose gel electrophoresis; format: nucleic-acid assay
Nucleic Acid [19] = experiment: Binding affinity to Escherichia coli pUC19 DNA assessed as form 1 DNA level at 0.175 mM after 9.07 hrs by agarose gel electrophoresis; format: nucleic-acid assay
Nucleic Acid [20] = experiment: Binding affinity to Escherichia coli pUC19 DNA assessed as form 2 DNA level at 0.175 mM after 25.35 hrs by agarose gel electrophoresis; format: nucleic-acid assay
Nucleic Acid [21] = experiment: Binding affinity to Escherichia coli pUC19 DNA assessed as form 1 DNA level at 0.698 mM after 8.45 hrs by agarose gel electrophoresis; format: nucleic-acid assay
Nucleic Acid [22] = experiment: Binding affinity to Escherichia coli pUC19 DNA assessed as form 2 DNA level at 0.349 mM after 26.15 hrs by agarose gel electrophoresis; format: nucleic-acid assay
Nucleic Acid [23] = experiment: Binding affinity to supercoiled Escherichia coli pUC19 DNA assessed as formation of nicked circular DNA at 1.10 mM at pH 6.0 for 24 hrs in presence of tertiary butyl hydroxide by agarose gel electrophoresis; format: nucleic-acid assay
Nucleic Acid [24] = experiment: Binding affinity to Escherichia coli pUC19 DNA assessed as form 1 DNA level at 0.262 mM after 28.18 hrs by agarose gel electrophoresis; format: nucleic-acid assay
Nucleic Acid [25] = experiment: Binding affinity to Escherichia coli pUC19 DNA assessed as form 1 DNA level at 0.698 mM after 3.72 hrs by agarose gel electrophoresis; format: nucleic-acid assay
Nucleic Acid [26] = experiment: Binding affinity to Escherichia coli pUC19 DNA assessed as form 2 DNA level at 0.320 mM after 9.07 hrs by agarose gel electrophoresis; format: nucleic-acid assay
Nucleic Acid [27] = experiment: Binding affinity to Escherichia coli pUC19 DNA assessed as form 1 DNA level at 0.130 mM after 11.30 hrs by agarose gel electrophoresis; format: nucleic-acid assay
Nucleic Acid [28] = experiment: Binding affinity to supercoiled Escherichia cloli pUC19 DNA assessed as formation of nicked circular DNA at 1.10 mM at pH 6.0 to 8.5 for 24 hrs by agarose gel electrophoresis; format: nucleic-acid assay; conditions: Escherichia coli
Nucleic Acid [29] = experiment: Binding affinity to Escherichia coli pUC19 DNA assessed as form 2 DNA level at 0.463 mM after 31.48 hrs by agarose gel electrophoresis; format: nucleic-acid assay
Nucleic Acid [30] = experiment: Binding affinity to Escherichia coli pUC19 DNA assessed as form 1 DNA level at 0.349 mM after 11.33 hrs by agarose gel electrophoresis; format: nucleic-acid assay
Nucleic Acid [31] = experiment: Binding affinity to Escherichia coli pUC19 DNA assessed as form 2 DNA level at 0.320 mM after 29.33 hrs by agarose gel electrophoresis; format: nucleic-acid assay
Nucleic Acid [32] = experiment: Binding affinity to Escherichia coli pUC19 DNA assessed as form 1 DNA level at 0.320 mM after 25.35 hrs by agarose gel electrophoresis; format: nucleic-acid assay
Nucleic Acid [33] = experiment: Binding affinity to Escherichia coli pUC19 DNA assessed as form 1 DNA level at 0.175 mM after 31.48 hrs by agarose gel electrophoresis; format: nucleic-acid assay
Nucleic Acid [34] = experiment: Binding affinity to Escherichia coli pUC19 DNA assessed as form 1 DNA level at 0.320 mM after 29.33 hrs by agarose gel electrophoresis; format: nucleic-acid assay
Nucleic Acid [35] = experiment: Binding affinity to Escherichia coli pUC19 DNA assessed as form 2 DNA level at 0.262 mM after 26.15 hrs by agarose gel electrophoresis; format: nucleic-acid assay
Nucleic Acid [36] = experiment: Binding affinity to Escherichia coli pUC19 DNA assessed as form 2 DNA level at 0.175 mM after 29.33 hrs by agarose gel electrophoresis; format: nucleic-acid assay
Nucleic Acid [37] = experiment: Binding affinity to Escherichia coli pUC19 DNA assessed as form 2 DNA level at 0.262 mM after 25.02 hrs by agarose gel electrophoresis; format: nucleic-acid assay
Nucleic Acid [38] = experiment: Binding affinity to Escherichia coli pUC19 DNA assessed as form 2 DNA level at 0.262 mM after 23.02 hrs by agarose gel electrophoresis; format: nucleic-acid assay
Nucleic Acid [39] = experiment: Binding affinity to Escherichia coli pUC19 DNA assessed as form 2 DNA level at 0.130 mM after 23.52 hrs by agarose gel electrophoresis; format: nucleic-acid assay

Cl.Cl.NNC1=NCC(O)CN1 (stereo not given) gave an Activity (Nucleic Acid [1]) of 71.9%, an Activity (Nucleic Acid [2]) of 24.4% and an Activity (Nucleic Acid [3]) of 60.2%. For the same compound, the Activity (Nucleic Acid [4]) was 76.3%, the Activity (Nucleic Acid [5]) was 98.2% and the Activity (HeLa) was 0%. It also gave an Activity (Nucleic Acid [6]) of 97.1%, an Activity (Nucleic Acid [7]) of 78.9% and an Activity (Nucleic Acid [8]) of 68%. The Activity (Nucleic Acid [9]) was 2.81%, the Activity (Nucleic Acid [10]) was 94% and the Activity (Nucleic Acid [11]) was 40.6%. For the same compound, the Activity (Nucleic Acid [12]) was 16.6%, the Activity (Nucleic Acid [13]) was 74% and the Activity (Nucleic Acid [14]) was 62%. For the same compound, the Activity (Nucleic Acid [15]) was 5.08%, the Activity (Nucleic Acid [16]) was 39.8% and the Activity (Nucleic Acid [17]) was 90.8%. It also gave an Activity (Nucleic Acid [18]) of 75.5%, an Activity (Nucleic Acid [19]) of 93.9% and an Activity (Nucleic Acid [20]) of 21.1%. The Activity (Nucleic Acid [21]) was 84.8%, the Activity (Nucleic Acid [22]) was 31.5% and the Activity (Nucleic Acid [23]) was “inactive”. The Activity (Nucleic Acid [24]) was 84.1%, the Activity (Nucleic Acid [25]) was 94.9% and the Activity (Nucleic Acid [26]) was 91.7%. For the same compound, the Activity (Nucleic Acid [27]) was 78.2%, the Activity (Nucleic Acid [28]) was “Active” and the Activity (Nucleic Acid [29]) was 48.9%. The Activity (Nucleic Acid [30]) was 90.9%, the Activity (Nucleic Acid [31]) was 65.2% and the Activity (Nucleic Acid [32]) was 64%. It also gave an Activity (Nucleic Acid [33]) of 74%, an Activity (Nucleic Acid [34]) of 59% and an Activity (Nucleic Acid [35]) of 13.7%. The Activity (Nucleic Acid [36]) was 23.7%, the Activity (Nucleic Acid [37]) was 11.9% and the Activity (Nucleic Acid [38]) was 9.9%. The Activity (Nucleic Acid [39]) was 26%.
